Experimental data taken from patent US20090312280A1.

Legend:
HT29 (Colon) = assay: cell survival / MTT combination cytotoxicity; format: cell-based, human; conditions: HT29; IC50 cytotoxic agent alone / IC50 combination; Compound 1 at 8x EC50 (360 nM)
Colo205 (Colon) = assay: cell survival / MTT combination cytotoxicity; format: cell-based, human; conditions: Colo205; IC50 cytotoxic agent alone / IC50 combination; Compound 1 at 8x EC50 (360 nM)
PC-3 (Prostate) = assay: cell survival / MTT combination cytotoxicity; format: cell-based, human; conditions: PC-3; IC50 cytotoxic agent alone / IC50 combination; Compound 1 at 8x EC50 (360 nM)
MDA-MB-231 (Breast) = assay: cell survival / MTT combination cytotoxicity; format: cell-based, human; conditions: IC50 cytotoxic agent alone / IC50 combination, Compound 1 at 8x EC50 (360 nM)
K562 (Leukemia) = assay: cell survival / MTT combination cytotoxicity; format: cell-based, human; conditions: IC50 cytotoxic agent alone / IC50 combination, Compound 1 at 4x EC50 (180 nM)
[1] = tested on: Colo205 human colon carcinoma xenografts; assay: in vivo chemopotentiation, Colo205 xenograft; design: species or system mice
Procedure: (§1) Experiments 1 to 39 were conducted in mice xenografts. Experiments 40-42 were conducted in rat xenografts. Specifically, irinotecan combination studies were conducted in HT29 and Colo205. Gemcitabine combination studies were conducted in Colo205. Docetaxel combination studies were conducted in Colo205.
(§2) Gemcitabine and irinotecan are DNA directed cytotoxics known to induce checkpoint activation and subsequent S/G2M-phase arrest. […] Docetaxel is an antimitotics where recent discoveries describe a novel function for CHK1 in the mitotic checkpoint.

[2] = tested on: HT29 human colon carcinoma xenografts; assay: in vivo chemopotentiation, HT29 xenograft (mice)
Procedure: as §1, §2

[3] = tested on: HT29 human colon carcinoma xenografts; assay: in vivo chemopotentiation, HT29 xenograft (rat)
Procedure: as §1, §2

[4] = Exp 18, docetaxel 30 mg/kg, Compound 1 30 mg/kg as printed, IP Q1w×3
[5] = Exp 19, docetaxel 30 mg/kg + Compound 1 7.5 mg/kg, IP simultaneously Q1w×3
[6] = Exp 20, docetaxel 30 mg/kg + Compound 1 15 mg/kg, IP simultaneously Q1w×3
[7] = Exp 21, docetaxel 30 mg/kg + Compound 1 30 mg/kg, IP simultaneously Q1w×3
[8] = Exp 22, docetaxel 15 mg/kg, Compound 1 15 mg/kg as printed, IP Q1w×3
[9] = Exp 23, docetaxel 15 mg/kg + Compound 1 15 mg/kg, IP simultaneously Q1w×3
[10] = Exp 24, docetaxel 15 mg/kg + Compound 1 30 mg/kg, IP simultaneously Q1w×3
[11] = Exp 25, docetaxel 15 mg/kg Q1w×3 + Compound 1 60 mg/kg, IP simultaneously, Compound 1 two cycles, total 120 mg/kg
[12] = Exp 8, irinotecan 10 mg/kg IP Q3d×4, Compound 1 0 mg/kg
[13] = Exp 9, irinotecan 10 mg/kg IP Q3d×4 + Compound 1 4 mg/kg IP Q3d×4 24 h after
[14] = Exp 10, irinotecan 10 mg/kg IP Q3d×4 + Compound 1 20 mg/kg IP Q3d×4 24 h after
[15] = Exp 11, irinotecan 10 mg/kg IP Q3d×4 + Compound 1 40 mg/kg IP Q3d×4 24 h after
[16] = Exp 12, irinotecan 10 mg/kg IP Q3d×4, Compound 1 0 mg/kg
[17] = Exp 13, irinotecan 30 mg/kg IP Q3d×4, Compound 1 0 mg/kg
[18] = Exp 14, irinotecan 60 mg/kg IP Q3d×4, Compound 1 0 mg/kg
[19] = Exp 15, irinotecan 10 mg/kg IP Q3d×4 + Compound 1 40 mg/kg IP Q3d×4 24 h after
[20] = Exp 16, irinotecan 30 mg/kg IP Q3d×4 + Compound 1 40 mg/kg IP Q3d×4 24 h after
[21] = Exp 17, irinotecan 60 mg/kg IP Q3d×4 + Compound 1 40 mg/kg IP Q3d×4 24 h after
[22] = Exp 26, irinotecan 10 mg/kg IP Q3d×4, Compound 1 0 mg/kg
[23] = Exp 27, irinotecan 10 mg/kg IP Q3d×4 + Compound 1 4 mg/kg IP Q3d×4 24 h after
[24] = Exp 28, irinotecan 10 mg/kg IP Q3d×4 + Compound 1 20 mg/kg IP Q3d×4 24 h after
[25] = Exp 29, irinotecan 10 mg/kg IP Q3d×4 + Compound 1 40 mg/kg IP Q3d×4 24 h after
[26] = Exp 30, irinotecan 10 mg/kg IP Q3d×4, Compound 1 0 mg/kg
[27] = Exp 31, irinotecan 30 mg/kg IP Q3d×4, Compound 1 0 mg/kg
[28] = Exp 32, irinotecan 60 mg/kg IP Q3d×4, Compound 1 0 mg/kg
[29] = Exp 33, irinotecan 10 mg/kg IP Q3d×4 + Compound 1 40 mg/kg IP Q3d×4 24 h after
[30] = Exp 34, irinotecan 30 mg/kg IP Q3d×4 + Compound 1 40 mg/kg IP Q3d×4 24 h after
[31] = Exp 35, irinotecan 60 mg/kg IP Q3d×4 + Compound 1 40 mg/kg IP Q3d×4 24 h after
[32] = Exp 36, irinotecan 50 mg/kg IP Q1w×3, Compound 1 0 mg/kg
[33] = Exp 37, irinotecan 100 mg/kg IP Q1w×3, Compound 1 0 mg/kg
[34] = Exp 38, irinotecan 50 mg/kg IP Q1w×3 + Compound 1 40 mg/kg IP twice weekly, 24 and 72 h after, three weeks
[35] = Exp 39, irinotecan 100 mg/kg IP Q1w×3 + Compound 1 40 mg/kg IP twice weekly, 24 and 72 h after, three weeks
[36] = Exp 40, irinotecan 100 mg/kg IP Q3d×4, Compound 1 0 mg/kg
[37] = Exp 41, irinotecan 100 mg/kg IP Q3d×4 + Compound 1 25 mg/kg two hour IV infusion Q3d×4 24 h after
[38] = Exp 42, irinotecan 100 mg/kg IP Q3d×4 + Compound 1 100 mg/kg two hour IV infusion Q3d×4 24 h after

SMILES: COc1cccc2c1C(=O)c1c(O)c3c(c(O)c1C2=O)C[C@@](O)(C(=O)CO)C[C@@H]3O[C@H]1C[C@H](N)[C@H](O)[C@H](C)O1 [Doxorubicin]
- PF50 (Potentiation Factor50) (HT29 (Colon)): 2.2
- PF50 (Potentiation Factor50) (Colo205 (Colon)): 1.1
- PF50 (Potentiation Factor50) (PC-3 (Prostate)): 1.5
- PF50 (Potentiation Factor50) (MDA-MB-231 (Breast)): 2.25
- PF50 (Potentiation Factor50) (K562 (Leukemia)): 1.1

SMILES: CC(=O)O[C@@]12CO[C@@H]1C[C@H](O)[C@@]1(C)C(=O)[C@H](O)C3=C(C)[C@@H](OC(=O)[C@H](O)[C@@H](NC(=O)OC(C)(C)C)c4ccccc4)C[C@@](O)([C@@H](OC(=O)c4ccccc4)[C@H]21)C3(C)C [Docetaxel]
- % TGI [1, 4]: 85%
- Growth delay [1, 4]: 54 days
- % TGI [1, 5]: 90%
- % poten TGI [1, 5]: 35%
- Growth delay [1, 5]: 53 days
- % TGI [1, 6]: 93%
- % TTP [1, 6]: 36%
- % poten TGI [1, 6]: 57%
- Growth delay [1, 6]: 68 days
- % TGI [1, 7]: 103%
- % TTP [1, 7]: 50%
- % poten TGI [1, 7]: 122%
- Growth delay [1, 7]: 74 days
- % TGI [1, 8]: 49%
- Growth delay [1, 8]: 4.75 days
- % TGI [1, 9]: 65%
- % TTP [1, 9]: 72%
- % poten TGI [1, 9]: 31%
- Growth delay [1, 9]: 19.75 days
- % TGI [1, 10]: 79%
- % TTP [1, 10]: 177%
- % poten TGI [1, 10]: 59%
- Growth delay [1, 10]: 41.5 days
- % TGI [1, 11]: 99%
- % TTP [1, 11]: 145%
- % poten TGI [1, 11]: 99%
- Growth delay [1, 11]: 35 days

SMILES: N.N.O=C([O-])C1(C(=O)[O-])CCC1.[Pt+2] [Carboplatin]
- PF50 (Potentiation Factor50) (HT29 (Colon)): 3
- PF50 (Potentiation Factor50) (Colo205 (Colon)): 5.4
- PF50 (Potentiation Factor50) (PC-3 (Prostate)): 3.1
- PF50 (Potentiation Factor50) (MDA-MB-231 (Breast)): 2.55
- PF50 (Potentiation Factor50) (K562 (Leukemia)): 1.9

SMILES: CO[C@@]12[C@H](COC(N)=O)C3=C(C(=O)C(C)=C(N)C3=O)N1C[C@@H]1N[C@@H]12 [Mytomicin C]
- PF50 (Potentiation Factor50) (HT29 (Colon)): 3.7
- PF50 (Potentiation Factor50) (Colo205 (Colon)): 5.3
- PF50 (Potentiation Factor50) (MDA-MB-231 (Breast)): 1.2

SMILES: CCc1c2c(nc3ccc(O)cc13)-c1cc3c(c(=O)n1C2)COC(=O)[C@]3(O)CC [SN-38]
- PF50 (Potentiation Factor50) (HT29 (Colon)): 3.7
- PF50 (Potentiation Factor50) (Colo205 (Colon)): 2.1
- PF50 (Potentiation Factor50) (PC-3 (Prostate)): 1.3
- PF50 (Potentiation Factor50) (MDA-MB-231 (Breast)): 2.4
- PF50 (Potentiation Factor50) (K562 (Leukemia)): 1.9

SMILES: CCc1c2c(nc3ccc(OC(=O)N4CCC(N5CCCCC5)CC4)cc13)-c1cc3c(c(=O)n1C2)COC(=O)[C@]3(O)CC [Irinotecan]
- % TGI [1, 12]: 35%
- Growth delay [1, 12]: 18 days
- % TGI [1, 13]: 50%
- % poten TGI [1, 13]: 22%
- Growth delay [1, 13]: 18 days
- % TGI [1, 14]: 69%
- % TTP [1, 14]: 33%
- % poten TGI [1, 14]: 52%
- Growth delay [1, 14]: 24 days
- % TGI [1, 15]: 59%
- % TTP [1, 15]: 12%
- % poten TGI [1, 15]: 37%
- Growth delay [1, 15]: 20.5 days
- % TGI [1, 16]: 35%
- Growth delay [1, 16]: 18 days
- % TGI [1, 17]: 65%
- Growth delay [1, 17]: 22 days
- % TGI [1, 18]: 83%
- Growth delay [1, 18]: 48 days
- % TGI [1, 19]: 59%
- % TTP [1, 19]: 12%
- % poten TGI [1, 19]: 37%
- Growth delay [1, 19]: 20.5 days
- % TGI [1, 20]: 73%
- % TTP [1, 20]: 54%
- % poten TGI [1, 20]: 24%
- Growth delay [1, 20]: 34 days
- % TGI [1, 21]: 91%
- % TTP [1, 21]: 8%
- % poten TGI [1, 21]: 47%
- Growth delay [1, 21]: 52 days
- % TGI [2, 22]: 26%
- Growth delay [2, 22]: 1.75 days
- % TGI [2, 23]: 26%
- % TTP [2, 23]: 29%
- Growth delay [2, 23]: 7.5 days
- % TGI [2, 24]: 61%
- % TTP [2, 24]: 39%
- % poten TGI [2, 24]: 47%
- Growth delay [2, 24]: 9.5 days
- % TGI [2, 25]: 57%
- % TTP [2, 25]: 44%
- % poten TGI [2, 25]: 42%
- Growth delay [2, 25]: 10.5 days
- % TGI [2, 26]: 8%
- Growth delay [2, 26]: 2.75 days
- % TGI [2, 27]: 13%
- Growth delay [2, 27]: 4 days
- % TGI [2, 28]: 49%
- Growth delay [2, 28]: 12.5 days
- % TGI [2, 29]: 22%
- % TTP [2, 29]: 0%
- % poten TGI [2, 29]: 15%
- Growth delay [2, 29]: 1.0 days
- % TGI [2, 30]: 66%
- % TTP [2, 30]: 61%
- % poten TGI [2, 30]: 60%
- Growth delay [2, 30]: 17.5 days
- % TGI [2, 31]: 77%
- % TTP [2, 31]: 28%
- % poten TGI [2, 31]: 55%
- Growth delay [2, 31]: 21 days
- % TGI [2, 32]: 65%
- Growth delay [2, 32]: 7.5 days
- % TGI [2, 33]: 70%
- Growth delay [2, 33]: 11.5 days
- % TGI [2, 34]: 77%
- % TTP [2, 34]: 24%
- % poten TGI [2, 34]: 36%
- Growth delay [2, 34]: 14 days
- % TGI [2, 35]: 89%
- % TTP [2, 35]: 49%
- % poten TGI [2, 35]: 62%
- Growth delay [2, 35]: 21 days
- % TGI [3, 36]: 45%
- Growth delay [3, 36]: 4.0 days
- % TGI [3, 37]: 58%
- % poten TGI [3, 37]: 23%
- Growth delay [3, 37]: 4.0 days
- % TGI [3, 38]: 77%
- % TTP [3, 38]: 24%
- % poten TGI [3, 38]: 58%
- Growth delay [3, 38]: 8.0 days
